Experimental data: patent US12564582B2 (Prilenia Neurotherapeutics Ltd., priority 2016, dated 2026)
Read-outs that look alike come from different tables or passages of the source.

How the values were obtained:
L-DOPA-induced dystonia = test system: L-DOPA-induced dystonia
Text: Data are median (FIG. 19A) with individual values (FIG. 19BB). N=8 for all treatment groups. */**/*** represents P<0.05, P<0.01 or P<0.001 cf. vehicle-treatment. 2-way RM ANOVA (FIG. 19A) with Holm-Sidak's test or Friedman test with Dunn's test (FIG. 19B).

neuroblastoma cell line = conditions: SIR-dependent manner (Geva 2016); cited from earlier work
[1] = test system: patients with Huntington's disease
Text: In the UHDRS, maximal dystonia was scored from 0 (absent) to 4 (marked/prolonged) on each of the following items: trunk, right upper extremity, left upper extremity, right lower extremity, and left lower extremity. Maximal dystonia is the sum of all scores.

[2] = test system: patients with Huntington's disease; conditions: 45 mg bid
[3] = test system: patients with Huntington's disease; conditions: after 26 weeks of treatment
Text: The TFC scale of the UHDRS is a standardized scale used to assess 5 functional domains associated with disability shown below (occupation, finances, domestic chores (e.g. laundry, washing dishes), activities of daily living, and care level).

[4] = test system: patients with Huntington's disease; conditions: 45 mg b.i.d, pooled MermaiHD, HART and Pride-HD, BL dystonia ≥4

## CCCN1CCC(c2cccc(S(C)(=O)=O)c2)CC1 [pridopidine, 4-[3-(methylsulfonyl)phenyl]-1-propyl-piperidine]
L-DOPA-induced dystonia; 20 mg/kg, 1 h epoch 4
  levels of dystonia, significance cf. LDh-vehicle: ns
L-DOPA-induced dystonia; 20 mg/kg, 1 h epoch 5
  levels of dystonia, significance cf. LDh-vehicle: ns
L-DOPA-induced dystonia; 20 mg/kg, 1 h epoch 6
  levels of dystonia, significance cf. LDh-vehicle: ns
L-DOPA-induced dystonia; 20 mg/kg, first hour
  median levels of dystonia: between moderate and marked
L-DOPA-induced dystonia; 30 mg/kg, 1 h epoch 1
  levels of dystonia, significance cf. LDh-vehicle: ** (P<0.01)
L-DOPA-induced dystonia; 30 mg/kg, 1 h epoch 2
  levels of dystonia, significance cf. LDh-vehicle: *** (P<0.001)
L-DOPA-induced dystonia; 30 mg/kg, 1 h epoch 3
  levels of dystonia, significance cf. LDh-vehicle: * (P<0.05)
L-DOPA-induced dystonia; 30 mg/kg, 1 h epoch 4
  levels of dystonia, significance cf. LDh-vehicle: ns
L-DOPA-induced dystonia; 30 mg/kg, 1 h epoch 5
  levels of dystonia, significance cf. LDh-vehicle: ns
L-DOPA-induced dystonia; 30 mg/kg, 1 h epoch 6
  levels of dystonia, significance cf. LDh-vehicle: ns
L-DOPA-induced dystonia; 30 mg/kg, cumulated over 0-2 h
  median levels of dystonia (printed dyskinesia): below mild (non-disabling)
  reduction of median levels of dystonia compared to LDh-vehicle: 72%
L-DOPA-induced dystonia; 30 mg/kg, first, second and third hours
  median levels of dystonia: mild to moderate
L-DOPA-induced dystonia; 15, 20, 30 mg/kg combined with LDh
  levels of L-DOPA-induced dystonia evoked by LDh: significant and dose-dependent reduction
Neuroblastoma cell line
  secretion of brain-derived neurotrophic factor (BDNF): enhances secretion
[1]; 45 mg bid, Week 26, ALL
  Δ to placebo, change from baseline in UHDRS TMS Dystonia: −0.06
[1]; 45 mg bid, Week 26, Stage 1 BL TFC 11-13
  Δ to placebo, change from baseline in UHDRS TMS Dystonia: −0.99
[1]; 45 mg bid, Week 52, Stage 1 BL TFC 11-13
  Δ to placebo, change from baseline in UHDRS TMS Dystonia: −1.65
[1]; 45 mg bid, Week 52, all pridopidine treated patients
  Δ to placebo, change from baseline in UHDRS TMS Dystonia: −0.39
[1]; 45 mg bid, week 26, BL TFC ≥9 and CAG Repeats <44 and BL TMS 1st 3 Qs
  Δ to placebo, change from baseline in UHDRS TMS Dystonia: −1.53
[1]; 45 mg bid, week 26, BL TFC≥9 AND CAG Repeats <44
  Δ to placebo, change from baseline in UHDRS TMS Dystonia: −1.54
[1]; 45 mg bid, week 26, CAG Repeats <44 AND BL TMS 1st 3 Qs
  Δ to placebo, change from baseline in UHDRS TMS Dystonia: −1.04
[1]; 67.5 mg bid, Week 26, ALL
  Δ to placebo, change from baseline in UHDRS TMS Dystonia: −0.34
[1]; 67.5 mg bid, Week 26, Stage 1 BL TFC 11-13
  Δ to placebo, change from baseline in UHDRS TMS Dystonia: −0.89
[1]; 67.5 mg bid, Week 52, Stage 1 BL TFC 11-13
  Δ to placebo, change from baseline in UHDRS TMS Dystonia: −0.1
[1]; 67.5 mg bid, Week 52, all pridopidine treated patients
  Δ to placebo, change from baseline in UHDRS TMS Dystonia: −0.35
[1]; 67.5 mg bid, week 26, BL TFC ≥9 and CAG Repeats <44 and BL TMS 1st 3 Qs
  Δ to placebo, change from baseline in UHDRS TMS Dystonia: −1.6
[1]; 67.5 mg bid, week 26, BL TFC≥9 AND CAG Repeats <44
  Δ to placebo, change from baseline in UHDRS TMS Dystonia: −1.58
[1]; 67.5 mg bid, week 26, CAG Repeats <44 AND BL TMS 1st 3 Qs
  Δ to placebo, change from baseline in UHDRS TMS Dystonia: −1.15
[1]; 90 mg bid, Week 26, ALL
  Δ to placebo, change from baseline in UHDRS TMS Dystonia: −0.33
[1]; 90 mg bid, Week 26, Stage 1 BL TFC 11-13
  Δ to placebo, change from baseline in UHDRS TMS Dystonia: −1.56
[1]; 90 mg bid, Week 52, Stage 1 BL TFC 11-13
  Δ to placebo, change from baseline in UHDRS TMS Dystonia: −1.46
[1]; 90 mg bid, Week 52, all pridopidine treated patients
  Δ to placebo, change from baseline in UHDRS TMS Dystonia: −0.27
[1]; 90 mg bid, week 26, BL TFC ≥9 and CAG Repeats <44 and BL TMS 1st 3 Qs
  Δ to placebo, change from baseline in UHDRS TMS Dystonia: −1.64
[1]; 90 mg bid, week 26, BL TFC≥9 AND CAG Repeats <44
  Δ to placebo, change from baseline in UHDRS TMS Dystonia: −1.72
[1]; 90 mg bid, week 26, CAG Repeats <44 AND BL TMS 1st 3 Qs
  Δ to placebo, change from baseline in UHDRS TMS Dystonia: −1
[1]; 112.5 mg bid, Week 26, ALL
  Δ to placebo, change from baseline in UHDRS TMS Dystonia: −0.29
[1]; 112.5 mg bid, Week 26, Stage 1 BL TFC 11-13
  Δ to placebo, change from baseline in UHDRS TMS Dystonia: −0.53
[1]; 112.5 mg bid, Week 52, Stage 1 BL TFC 11-13
  Δ to placebo, change from baseline in UHDRS TMS Dystonia: −0.46
[1]; 112.5 mg bid, Week 52, all pridopidine treated patients
  Δ to placebo, change from baseline in UHDRS TMS Dystonia: −0.24
[1]; 112.5 mg bid, week 26, BL TFC ≥9 and CAG Repeats <44 and BL TMS 1st 3 Qs
  Δ to placebo, change from baseline in UHDRS TMS Dystonia: −1.29
[1]; 112.5 mg bid, week 26, BL TFC≥9 AND CAG Repeats <44
  Δ to placebo, change from baseline in UHDRS TMS Dystonia: −1.4
[1]; 112.5 mg bid, week 26, CAG Repeats <44 AND BL TMS 1st 3 Qs
  Δ to placebo, change from baseline in UHDRS TMS Dystonia: −0.62
[1]; baseline total dystonia score≥4, Week 52, all treatment groups, greatest decreases for 45, 67.5 and 90 mg bid
  dystonia score, change from baseline: directional clinical improvement
[1]; full analysis set, Week 26 or Week 52, all active treatment groups
  dystonia score, change from baseline: no clinically meaningful changes from baseline
[2]; BL dystonia score ≥4, completed 52 weeks, FIG. 16a, placebo 60.0%
  Responders, UHDRS TMS dystonia (improved or no change): 77.8%
[2]; BL dystonia score ≥4, completed 52 weeks, FIG. 16b, placebo […]
  Responders, UHDRS TMS dystonia (improved, change≥1): 66.7%
[2]; BL dystonia score ≥4, completed 52 weeks, placebo […]
  Responders, UHDRS-Limb Dystonia item (improved, change≥1): 77.2%
[2]; placebo 66.7%
  Responders, chorea+dystonia items: 77.8%
[3]
  Total Functional Capacity (TFC): trends favoring pridopidine
[4]; Week 26
  UHDRS Dystonia score compared to placebo: statistically significant improvement
[4]; Week 52
  UHDRS Dystonia score compared to placebo: trend toward this improvement was maintained
